# How the values were obtained:
# Format in all cases: in vivo
# wheat variety Ritmo [1] = experiment: Plot trial: chlorophyll content of leaves (pigment extraction method of Ziegler and Ehle)
# wheat variety Ritmo [2] = experiment: Plot trial in Germany: green leaf area by visual scoring; details: sprays at BBCH 39 and 59
# Method: In Germany a plot trial was set up with the wheat variety Ritmo in order to investigate the effect of bixafen on the physiology, morphology and abiotic stress tolerance of wheat plants under realistic agricultural conditions. The products under test were applied to the plants, in the form of sequential spray sequences (BBCH 39 and 59). The spray volume was 400 l of water per hectare. In each trial component, 5 repetitions were carried out. [table] The duration of green coloration of the leaf area was captured by regular visual scoring of the fraction of green leaf area.
# wheat variety Ritmo [3] = experiment: Plot trial: yield components; details: sprays at BBCH 39 and 59
# [4] = system: infection-free wheat plants of the cultivar Passat; experiment: Glasshouse trial: time of heading (ear emergence); set-up: time of heading of wheat (ears emerged): unit not given here
# Method: (§1) In a glasshouse trial under controlled conditions, the effect of bixafen was investigated on the physiology, morphology and abiotic stress tolerance of infection-free wheat plants of the cultivar […] plants were grown in 10-litre containers over a period of 4 months. The substrate used was standard earth type ED 73 (Fröndenberg, Germany)+C-Horizont+Sand (4:2:1). The supply of nutrient to the plants took place by feeding with a 0.2% strength Flory 2 liquid fertilizer solution (from Euflor, Munich) once every two weeks. The plants were supplied with water as required. In each component of the trial, 10 repetitions were carried out.
# [5] = system: infection-free wheat plants of the cultivar Passat; experiment: Glasshouse trial: yield components; details: glasshouse, sprays at BBCH 39 and 59
# [6] = system: infection-free wheat plants of the cultivar Passat; experiment: Glasshouse trial: temperature of ears and leaves as measure of transpiration activity
# Method: as §1
# [7] = system: infection-free wheat plants of the cultivar Passat; experiment: Glasshouse trial: green leaf area by visual scoring; details: glasshouse
# Method: as §1, with “out. To prevent infestation with powdery mildew, Proquinazid (Talius® was applied once. The incidence of aphids and spider mites was avoided by treatments with Karate®, Bulldock® and Sumicidin®. The products under test were applied to the plants, in the form of sequential spray sequences (BBCH 39 and 59). The spray volume was 300 l of water per hectare. [table] The duration of the green coloration of the leaf area was captured on the basis of regular visual scoring of the fraction of the green leaf area.” for “out.”
# [8] = system: infection-free wheat plants of the cultivar Passat; experiment: Glasshouse trial: size of the flag leaf; details: at BBCH 83-85
# Method: In a glasshouse trial under controlled conditions, the effect of bixafen was investigated on the physiology, morphology and abiotic stress tolerance of infection-free wheat plants of the cultivar […] plants were grown in 10-litre containers over a period of 4 months. The substrate used was standard earth type ED 73 (Fröndenberg, Germany)+C-Horizont+Sand (4:2:1). The supply of nutrient to the plants took place by feeding with a 0.2% strength Flory 2 liquid fertilizer solution (from Euflor, Munich) once every two weeks. The plants were supplied with water as required. In each component of the trial, 10 repetitions were carried out. To prevent infestation with powdery mildew, Proquinazid (Talius® was applied once. The incidence of aphids and spider mites was avoided by treatments with Karate®, Bulldock® and Sumicidin®. The products under test were applied to the plants, in the form of sequential spray sequences (BBCH 39 and 59). The spray volume was 300 l of water per hectare. [table] Morphological parameters measured, additionally, were the length and width, i.e. the size of the flag leaf. This was greatest with the succinate dehydrogenase (SDH) inhibitor bixafen, in comparison to the other comparison fungicides.
# [9] = system: infection-free wheat plants of the cultivar Passat; experiment: Glasshouse trial: gas exchange activity of wheat ears; details: development stage BBCH 75
# Method: as §1
# [10] = BBCH 75 (mature milk), leaf F-1
# [11] = BBCH 75 (mature milk), leaf F-2
# [12] = BBCH 85 (mature dough), leaf F-1
# [13] = BBCH 85 (mature dough), leaf F-2
# [14] = 7 days after second fungicide application
# [15] = 14 days after second fungicide application
# [16] = 21 days after second fungicide application
# [17] = 28 days after second fungicide application
# [18] = 35 days after second fungicide application
# [19] = 42 days after second fungicide application
# [20] = 49 days after second fungicide application
# [21] = 68 days after second fungicide application (so in the source)
# [22] = 75 days after second fungicide application (so in the source)
# [23] = 82 days after second fungicide application (so in the source)
# [24] = 89 days after second fungicide application (so in the source)
# [25] = 96 days after second fungicide application (so in the source)
# [26] = 103 days after second fungicide application (so in the source)
# [27] = 110 days after second fungicide application (so in the source)
# [28] = 117 days after second fungicide application (so in the source)
structure (smiles),measurement,setting,value
"O=C(Nc1ccccc1-c1ccc(Cl)cc1)c1cccnc1Cl [Boscalid, 2-chloro-N-(4′-chlorobiphenyl-2-yl)nicotinamide]",Chlorophyll content,"wheat variety Ritmo [1]; BBCH 75 (mature milk), leaf F",1597 µg/g
same,Chlorophyll content,wheat variety Ritmo [1]; [10],1505 µg/g
same,Chlorophyll content,wheat variety Ritmo [1]; [11],826 µg/g
same,Chlorophyll content,"wheat variety Ritmo [1]; BBCH 85 (mature dough), leaf F",188 µg/g
same,Chlorophyll content,wheat variety Ritmo [1]; [12],160 µg/g
same,Chlorophyll content,wheat variety Ritmo [1]; [13],110 µg/g
same,green leaf area of the flag leaf,wheat variety Ritmo [2]; [14],96.0 % leaf area
same,green leaf area of the second-from-top leaf (F-1),wheat variety Ritmo [2]; [14],94.4 % leaf area
same,green leaf area of the third-from-top leaf (F-2),wheat variety Ritmo [2]; [14],90.3 % leaf area
same,green leaf area of the flag leaf,wheat variety Ritmo [2]; [15],95.5 % leaf area
same,green leaf area of the second-from-top leaf (F-1),wheat variety Ritmo [2]; [15],91.8 % leaf area
same,green leaf area of the third-from-top leaf (F-2),wheat variety Ritmo [2]; [15],85.8 % leaf area
same,green leaf area of the flag leaf,wheat variety Ritmo [2]; [16],86.1 % leaf area
same,green leaf area of the second-from-top leaf (F-1),wheat variety Ritmo [2]; [16],74.7 % leaf area
same,green leaf area of the third-from-top leaf (F-2),wheat variety Ritmo [2]; [16],61.5 % leaf area
same,green leaf area of the flag leaf,wheat variety Ritmo [2]; [17],73.6 % leaf area
same,green leaf area of the second-from-top leaf (F-1),wheat variety Ritmo [2]; [17],60.0 % leaf area
same,green leaf area of the third-from-top leaf (F-2),wheat variety Ritmo [2]; [17],41.0 % leaf area
same,green leaf area of the flag leaf,wheat variety Ritmo [2]; [18],43.2 % leaf area
same,green leaf area of the second-from-top leaf (F-1),wheat variety Ritmo [2]; [18],25.5 % leaf area
same,green leaf area of the third-from-top leaf (F-2),wheat variety Ritmo [2]; [18],4.6 % leaf area
same,green leaf area of the flag leaf,wheat variety Ritmo [2]; [19],7.0 % leaf area
same,green leaf area of the second-from-top leaf (F-1),wheat variety Ritmo [2]; [19],0 % leaf area
same,green leaf area of the third-from-top leaf (F-2),wheat variety Ritmo [2]; [19],0 % leaf area
same,green leaf area of the second-from-top leaf (F-1),wheat variety Ritmo [2]; [20],0 % leaf area
same,Ears/m^2,wheat variety Ritmo [3],444
same,Harvest Index,wheat variety Ritmo [3],58.6
same,Straw,wheat variety Ritmo [3],514 g m^−2
same,TKM (thousand-kernel mass),wheat variety Ritmo [3],44.6 g
same,Yield,wheat variety Ritmo [3],7.8 t ha^−1
CO/N=C(/C1=NOCCO1)c1ccccc1Oc1ncnc(Oc2ccccc2Cl)c1F [Fluoxastrobin],time of heading of wheat (ears emerged),[4]; 45 days after sowing,11.4
same,time of heading of wheat (ears emerged),[4]; 50 days after sowing,33.1
same,time of heading of wheat (ears emerged),[4]; 55 days after sowing,43.8
same,time of heading of wheat (ears emerged),[4]; 60 days after sowing,49.9
same,time of heading of wheat (ears emerged),[4]; 65 days after sowing,61.1
same,time of heading of wheat (ears emerged),[4]; 70 days after sowing,76.4
same,time of heading of wheat (ears emerged),[4]; 75 days after sowing,87.8
same,time of heading of wheat (ears emerged),[4]; 80 days after sowing,93.1
same,time of heading of wheat (ears emerged),[4]; 85 days after sowing,97.1
same,Ears/pot,[5],41.0
same,Harvest Index,[5],29.0%
same,Kernels/ear,[5],21.9
same,Straw,[5],74.5 g/pot
same,TKM (thousand-kernel mass),[5],34.3 g
same,Yield,[5],30.5 g/pot
same,Temperature (as a measure of the transpiration activity),"[6]; BBCH 75, ear",23.1 °C
same,Temperature (as a measure of the transpiration activity),"[6]; BBCH 75, leaf",22.3 °C
same,Temperature (as a measure of the transpiration activity),"[6]; BBCH 80, ear",18.9 °C
same,Temperature (as a measure of the transpiration activity),"[6]; BBCH 80, leaf",16.5 °C
same,Temperature (as a measure of the transpiration activity),"[6]; BBCH 85, ear",24.8 °C
same,Temperature (as a measure of the transpiration activity),"[6]; BBCH 85, leaf",23.4 °C
same,Temperature (as a measure of the transpiration activity),"[6]; BBCH 90, ear",23.9 °C
same,Temperature (as a measure of the transpiration activity),"[6]; BBCH 90, lear (so in the source)",22.7 °C
same,green leaf area of the flag leaf (F),[7]; [21],100 % leaf area
same,green leaf area of the second-from-top leaf (F-1),[7]; [21],100 % leaf area
same,green leaf area of the third-from-top leaf (F-2),[7]; [21],100 % leaf area
same,green leaf area of the flag leaf (F),[7]; [22],100 % leaf area
same,green leaf area of the second-from-top leaf (F-1),[7]; [22],100 % leaf area
same,green leaf area of the third-from-top leaf (F-2),[7]; [22],95 % leaf area
same,green leaf area of the flag leaf (F),[7]; [23],100 % leaf area
same,green leaf area of the second-from-top leaf (F-1),[7]; [23],95 % leaf area
same,green leaf area of the third-from-top leaf (F-2),[7]; [23],82 % leaf area
same,green leaf area of the flag leaf (F),[7]; [24],95 % leaf area
same,green leaf area of the second-from-top leaf (F-1),[7]; [24],84 % leaf area
same,green leaf area of the third-from-top leaf (F-2),[7]; [24],54 % leaf area
same,green leaf area of the flag leaf (F),[7]; [25],85 % leaf area
same,green leaf area of the second-from-top leaf (F-1),[7]; [25],56 % leaf area
same,green leaf area of the third-from-top leaf (F-2),[7]; [25],29 % leaf area
same,green leaf area of the flag leaf (F),[7]; [26],60 % leaf area
same,green leaf area of the second-from-top leaf (F-1),[7]; [26],30 % leaf area
same,green leaf area of the third-from-top leaf (F-2),[7]; [26],18 % leaf area
same,green leaf area of the flag leaf (F),[7]; [27],37 % leaf area
same,green leaf area of the second-from-top leaf (F-1),[7]; [27],18 % leaf area
same,green leaf area of the third-from-top leaf (F-2),[7]; [27],7 % leaf area
same,green leaf area of the flag leaf (F),[7]; [28],12 % leaf area
same,green leaf area of the second-from-top leaf (F-1),[7]; [28],6 % leaf area
same,green leaf area of the third-from-top leaf (F-2),[7]; [28],0 % leaf area
same,Chlorophyll content,"wheat variety Ritmo [1]; BBCH 75 (mature milk), leaf F",1924 µg/g
same,Chlorophyll content,wheat variety Ritmo [1]; [10],1671 µg/g
same,Chlorophyll content,wheat variety Ritmo [1]; [11],1126 µg/g
same,Chlorophyll content,"wheat variety Ritmo [1]; BBCH 85 (mature dough), leaf F",630 µg/g
same,Chlorophyll content,wheat variety Ritmo [1]; [12],534 µg/g
same,Chlorophyll content,wheat variety Ritmo [1]; [13],415 µg/g
same,Length of the flag leaf,[8],25.6 cm
same,Width of the flag leaf,[8],1.4 cm
same,Area of the flag leaf,[8]; calculated using the formula A = 0.67 × length × width,24.01 cm^2
same,Area [rel.] of the flag leaf,[8]; untreated = 100,110 rel.
same,Photosynthesis (gas exchange activity of wheat ears),[9],−2.44 a CO2 per ear
same,Respiration (gas exchange activity of wheat ears),[9],2.96 b CO2 per ear
same,green leaf area of the flag leaf,wheat variety Ritmo [2]; [14],98.7 % leaf area
same,green leaf area of the second-from-top leaf (F-1),wheat variety Ritmo [2]; [14],98.8 % leaf area
same,green leaf area of the third-from-top leaf (F-2),wheat variety Ritmo [2]; [14],96.3 % leaf area
same,green leaf area of the flag leaf,wheat variety Ritmo [2]; [15],98.7 % leaf area
same,green leaf area of the second-from-top leaf (F-1),wheat variety Ritmo [2]; [15],98.0 % leaf area
same,green leaf area of the third-from-top leaf (F-2),wheat variety Ritmo [2]; [15],95.5 % leaf area
same,green leaf area of the flag leaf,wheat variety Ritmo [2]; [16],98.3 % leaf area
same,green leaf area of the second-from-top leaf (F-1),wheat variety Ritmo [2]; [16],96.1 % leaf area
same,green leaf area of the third-from-top leaf (F-2),wheat variety Ritmo [2]; [16],92.1 % leaf area
same,green leaf area of the flag leaf,wheat variety Ritmo [2]; [17],95.8 % leaf area
same,green leaf area of the second-from-top leaf (F-1),wheat variety Ritmo [2]; [17],93.5 % leaf area
same,green leaf area of the third-from-top leaf (F-2),wheat variety Ritmo [2]; [17],88.5 % leaf area
same,green leaf area of the flag leaf,wheat variety Ritmo [2]; [18],63.0 % leaf area
same,green leaf area of the second-from-top leaf (F-1),wheat variety Ritmo [2]; [18],47.0 % leaf area
same,green leaf area of the third-from-top leaf (F-2),wheat variety Ritmo [2]; [18],31.5 % leaf area
same,green leaf area of the flag leaf,wheat variety Ritmo [2]; [19],23.7 % leaf area
same,green leaf area of the second-from-top leaf (F-1),wheat variety Ritmo [2]; [19],9.8 % leaf area
same,green leaf area of the third-from-top leaf (F-2),wheat variety Ritmo [2]; [19],1.9 % leaf area
same,green leaf area of the second-from-top leaf (F-1),wheat variety Ritmo [2]; [20],0 % leaf area
same,Ears/m^2,wheat variety Ritmo [3],409
same,Harvest Index,wheat variety Ritmo [3],58.1
same,Straw,wheat variety Ritmo [3],581 g m^−2
same,TKM (thousand-kernel mass),wheat variety Ritmo [3],45.8 g
same,Yield,wheat variety Ritmo [3],8.2 t ha^−1

# Reference: US20110196000A1, “Use of succinate dehydrogenase (SDH) inhibitors in the treatment of plant species from the family of the true grasses” (Bayer CropScience AG, priority 2010, published 2011)
